In paper PMC7036753, “Lipidated Analogs of the LL-37-Derived Peptide Fragment KR12—Structural Analysis, Surface-Active Properties and Antimicrobial Activity” (International Journal of Molecular Sciences, 2020):
In brackets after ≈: the same amount, converted by molar mass. Peptide text beside a SMILES is read from it. * marks the point of attachment. Bz = O=C(c1ccccc1)*

Columns and labels:
[1] = system: human keratinocytes (HaCaT); format: cell-based; conditions: HaCaT, MTT, 24 h
Description: The cytotoxicity of test compounds (IC50) was evaluated for human keratinocytes (HaCaT, ATCC) using classic MTT assay on 96-well plates. In this assay, a colorimetric determination of the cell metabolic activity was carried out. Specifically, the color intensity reflects the number of live cells that can be measured spectrophotometrically. […] A day after plating 500 cells per well, a series of concentrations (0.5–500 μg/mL) of the test compounds were added. Dimethyl sulfoxide (DMSO) was used as a control in cells at a final concentration of 1.0% (v/v), which was related to the maximal concentration of the solvent compounds used in the experiment. After 24 h of incubation with test compounds, a medium containing 1 mg/mL of MTT was added up to a final concentration of 0.5 mg/mL and subsequently incubated at 37 °C for 4 h. Then, the medium was aspirated and the formazan product was solubilized with DMSO. The background absorbance at 630 nm was subtracted from that at 570 nm for each well (Epoch, BioTek Instruments, Winooski, VT, USA). Six replicates were conducted for each concentration. All experiments were repeated at least twice and the resulting IC50 values were calculated with a GraFit 7 software (v. 7.0, Erithacus, Berkley, CA, USA).

[2] = system: reference strains of S. aureus; format: cell-based, Staphylococcus aureus; conditions: five reference strains of S. aureus
Description: Examination of antimicrobial activity of the test compounds was conducted on reference strains of bacteria assigned to ESKAPE group of pathogens: Enterococcus faecium ATCC 700221, Klebsiella pneumoniae ATCC 700603, Acinetobacter baumannii ATCC BAA-1605, Pseudomonas aeruginosa ATCC 9027, Klebsiella aerogenes ATCC 13048 (formerly Enterobacter aerogenes) and reference strains of Staphylococcus aureus, namely: S. aureus ATCC 25923, S. aureus ATCC 6538, S. aureus ATCC 33591 (MRSA), S. aureus ATCC 9144 and S. aureus ATCC 12598. All the strains were stored at −80 °C in Roti®-Store cryo vials (Carl Roth GmbH, Karlsruhe, Germany) and before the tests were transferred into fresh Mueller-Hinton Medium (BioMaxima, Lublin, Poland) and incubated for 24 h at 37 °C. Subsequently, each bacterial inoculum was seeded on Mueller-Hinton Agar plates (BioMaxima) and incubated again for 24 h. The cultures prepared in this way were used in further antimicrobial assays and prepared as described above. The MIC values were determined by the broth microdilution method according to Clinical and Laboratory Standards Institute Protocol. […] The experiments were conducted on 96-well microtiter plates, with a final volume of 100 µL. Cell densities were adjusted spectrophotometrically (Multiskan™ GO Microplate Spectrophotometer, Thermo Scientific) at 600 nm. The MICs were taken as the lowest drug concentration at which a visible growth of microorganisms was inhibited. All experiments were conducted in triplicate and included positive (growth) and negative (sterility) controls.

[3] = system: A. baumannii ATCC BAA-1605; format: cell-based, Acinetobacter baumannii; conditions: A. baumannii ATCC BAA-1605; Mueller-Hinton Broth, 18 h
Description: (§1) Examination of antimicrobial activity of the test compounds was conducted on reference strains of bacteria assigned to ESKAPE group of pathogens: Enterococcus faecium ATCC 700221, Klebsiella pneumoniae ATCC 700603, Acinetobacter baumannii ATCC BAA-1605, Pseudomonas aeruginosa ATCC 9027, Klebsiella aerogenes ATCC 13048 (formerly Enterobacter aerogenes) and reference strains of Staphylococcus aureus, namely: S. aureus ATCC 25923, S. aureus ATCC 6538, S. aureus ATCC 33591 (MRSA), S. aureus ATCC 9144 and S. aureus ATCC 12598. All the strains were stored at −80 °C in Roti®-Store cryo vials (Carl Roth GmbH, Karlsruhe, Germany) and before the tests were transferred into fresh Mueller-Hinton Medium (BioMaxima, Lublin, Poland) and incubated for 24 h at 37 °C. Subsequently, each bacterial inoculum was seeded on Mueller-Hinton Agar plates (BioMaxima) and incubated again for 24 h. The cultures prepared in this way were used in further antimicrobial assays and prepared as described above. The MIC values were determined by the broth microdilution method according to Clinical and Laboratory Standards Institute Protocol. For this purpose, initial inoculums of bacteria (0.5 × 10^5 colony forming unit (CFU)/mL) in Mueller–Hinton Broth were exposed to the ranging concentrations of compounds (0.5–256 µg/mL) and incubated for 18 h at 37 °C. The experiments were conducted on 96-well microtiter plates, with a final volume of 100 µL. Cell densities were adjusted spectrophotometrically (Multiskan™ GO Microplate Spectrophotometer, Thermo Scientific) at 600 nm. The MICs were taken as the lowest drug concentration at which a visible growth of microorganisms was inhibited. All experiments were conducted in triplicate and included positive (growth) and negative (sterility) controls.

[4] = system: S. aureus ATCC 9144 biofilm; format: cell-based, Staphylococcus aureus; conditions: S. aureus ATCC 9144 biofilm, 24 h
Description: (§2) The MBECs values were determined according to the method reported previously. Briefly, 24-h cultures of S. aureus, namely: S. aureus ATCC 25923, S. aureus ATCC 6538, S. aureus ATCC 33591 (MRSA), S. aureus ATCC 9144 and S. aureus ATCC 12598 were diluted to a concentration of 0.5 × 10^7 CFU/mL and added to the test wells of polystyrene microdilution flat-bottom plates. After 24-h of incubation at 37 °C, the wells were rinsed three times with PBS to remove non-adherent cells. Subsequently, 100 μL of the test compounds over a concentration range 0.5–256 µg/mL were added to each well and incubated again for 24 h at 37 °C. After this period, 20 μL of the resazurin (7-hydroxy-3H-phenoxazin-3-one-10-oxide, 4 mg/mL) solution was added to each well. After 1 h of incubation, the MBECs were read out. The determined values were recorded as the lowest concentration at which the reduction of resazurin (from blue to pink) was lower or equal to 10 ± 0.5% as compared to the positive (100%) and negative (0%) controls. All experiments were performed in triplicate.

[5] = system: S. aureus ATCC 6538 biofilm; format: cell-based, Staphylococcus aureus; conditions: S. aureus ATCC 6538 biofilm, 24 h
Description: as §2

E. faecium ATCC 700221 = format: cell-based, Enterococcus faecium; conditions: E. faecium ATCC 700221; Mueller-Hinton Broth, 18 h
Description: as §1

K. aerogenes ATCC 13048 = format: cell-based, Klebsiella aerogenes; conditions: K. aerogenes ATCC 13048; Mueller-Hinton Broth, 18 h
Description: as §1

P. aeruginosa ATCC 9027 = format: cell-based, Pseudomonas aeruginosa; conditions: P. aeruginosa ATCC 9027; Mueller-Hinton Broth, 18 h
Description: as §1

In the case of `CC[C@H](C)[C@H](NC(=O)[C@H](CCCNC(=N)N)NC(=O)[C@H](CCC(N)=O)NC(=O)[C@@H](NC(=O)[C@@H](NC(=O)[C@H](CCCNC(=N)N)NC(=O)[C@H](CCCCN)NC(=O)c1ccccc1)[C@@H](C)CC)C(C)C)C(=O)N[C@@H](CCCCN)C(=O)N[C@@H](CC(=O)O)C(=O)N[C@@H](Cc1ccccc1)C(=O)N[C@@H](CC(C)C)C(=O)N[C@@H](CCCNC(=N)N)C(N)=O` [VIII, Benzoic acid-KR12-NH2] (Bz-KRIVQRIKDFLR-NH2), the IC50 [1] is reported as 40.50 µg/mL (≈ 24.2 µM), the “GM (geometric mean of the MIC values against S. aureus)” value [2] is reported as 18.38 µg/mL and the MIC [3] is reported as 16 µg/mL (≈ 9.55 µM). For the same compound, the MBEC [4] was 16 µg/mL, the MBEC [5] was 32 µg/mL and the MIC (E. faecium ATCC 700221) was 1 µg/mL (≈ 0.597 µM). It also gave an MIC (K. aerogenes ATCC 13048) of 16 µg/mL (≈ 9.55 µM) and an MIC (P. aeruginosa ATCC 9027) of 8 µg/mL (≈ 4.78 µM).
